Measured values from PMC6950567, “Evaluation of Marine Diindolinonepyrane in Vitro and in Vivo: Permeability Characterization in Caco-2 Cells Monolayer and Pharmacokinetic Properties in Beagle Dogs” (Marine Drugs, 2019).
Read-outs that look alike come from different tables or passages of the source.

Legend:
Caco-2 cells monolayer = Caco-2 cells monolayer absorption and bidirectional transport experiment; type: in vitro ADME, human
Procedure: (§1) The samples included three control drugs (fenoterol, propranolol, and digoxin) and 2,5-BHPA. […] For transfer in the AP→BL direction, 0.075 mL drug solution was added to the AP side as the supply pool, and 0.25 mL HBSS solution was added to the BL side as the receiving pool. In the BL→AP direction, 0.25 mL compound solution was added to the BL side as the supply pool, and 0.075 mL HBSS solution was added to the AP side as the receiving pool. The transwell plate was then cultured in an incubator at 37 °C for 2 h. Samples on the AP side and BL side were collected, respectively. Then, acetonitrile containing an internal label was added to each upper chamber to lyse transport membranes. The total recovery was calculated by collecting the amount of lead compound absorbed on the membrane surface or accumulated in the cell. Finally, the concentration of each sample was calculated as the ratio of the peak area between the compound and the inner target through mass spectrum analysis (API 4000).
(§2) Papp = (dCr/dt) × Vr/(A × C0)(2) where dCr/dt is the cumulative compound concentration per unit of time (µM/s); Vr is the volume in the receiving hole (mL); A is the transport membrane area; and C0 is the compound initiation concentration (µM).

[1] = as above; type: in vitro ADME, human; conditions: human; for Papp A→B at 2 h, 2 µM: read-out: Mean Papp AP to BL; for Papp B→A at 2 h, 2 µM: read-out: Mean Papp BL to AP; for recovery at 2 h: direction not specified, read-out: total recovery rate of control drugs
Procedure: as §1, §2

[2] = 2 µM, 0.1% bull serum albumin added
[3] = Caco-2, 2 µM, 0.1% bull serum albumin added

C[C@H]1O[C@@H](O[C@H]2[C@@H](O)C[C@H](O[C@H]3[C@@H](O)C[C@H](O[C@H]4CC[C@@]5(C)[C@H](CC[C@@H]6[C@@H]5C[C@@H](O)[C@]5(C)[C@@H](C7=CC(=O)OC7)CC[C@]65O)C4)O[C@@H]3C)O[C@@H]2C)C[C@H](O)[C@@H]1O [Digoxin, digoxin, reference compound]
Recoveries AP to BL (Caco-2 cells monolayer; [2]): 84.14 ± 3.13% | Recoveries BL to AP (Caco-2 cells monolayer; [2]): 93.35 ± 3.56% | Total Recoveries AP to BL (Caco-2 cells monolayer; [2]): 85.37 ± 3.52% | Total Recoveries BL to AP (Caco-2 cells monolayer; [2]): 93.43 ± 4.63% | Recoveries AP to BL (Caco-2 cells monolayer; 2 μM, no BSA): 83.66 ± 3.14% | Recoveries BL to AP (Caco-2 cells monolayer; 2 μM, no BSA): 82.87 ± 4.38% | Total Recoveries AP to BL (Caco-2 cells monolayer; 2 μM, no BSA): 86.44 ± 3.51% | Total Recoveries BL to AP (Caco-2 cells monolayer; 2 μM, no BSA): 83.31 ± 2.40% | efflux ratio at 2 h, 2 µM [1, 3]: 485 | Papp A→B at 2 h, 2 µM [1, 3]: 0.023 ± 0.001 ×10⁻⁶ cm/s | Papp B→A at 2 h, 2 µM [1, 3]: 10.4 ± 0.911 ×10⁻⁶ cm/s | efflux ratio at 2 h, 2 µM ([1]; Caco-2, 2 μM, no BSA): 260 | Papp A→B at 2 h, 2 µM ([1]; Caco-2, 2 μM, no BSA, 2 h): 0.033 ± 0.003 ×10⁻⁶ cm/s | Papp B→A at 2 h, 2 µM ([1]; Caco-2, 2 μM, no BSA, 2 h): 9.05 ± 0.62 ×10⁻⁶ cm/s | recovery at 2 h ([1]; Caco-2, text summary, no BSA): > 83%

CC(Cc1ccc(O)cc1)NCC(O)c1cc(O)cc(O)c1 (centres unmarked) [Fenoterol, fenoterol, reference compound]
Recoveries AP to BL (Caco-2 cells monolayer; [2]): 94.38 ± 5.14% | Total Recoveries AP to BL (Caco-2 cells monolayer; [2]): 96.16 ± 6.72% | Recoveries AP to BL (Caco-2 cells monolayer; 2 μM, no BSA): 87.67 ± 1.24% | Total Recoveries AP to BL (Caco-2 cells monolayer; 2 μM, no BSA): 90.92 ± 4.23% | Papp A→B at 2 h, 2 µM [1, 3]: 0.091 ± 0.012 ×10⁻⁶ cm/s | Papp A→B at 2 h, 2 µM ([1]; Caco-2, 2 μM, no BSA, 2 h): 0.055 ± 0.008 ×10⁻⁶ cm/s | recovery at 2 h ([1]; Caco-2, no BSA): > 83%

CC(C)NCC(O)COc1cccc2ccccc12 (centres unmarked) [Propranolol, propranolol, reference compound]
total recovery rate AP→BL (Caco-2 cells monolayer; Caco-2): 100% | total recovery rate of control drugs (Caco-2 cells monolayer; Caco-2): more than 83%

NNC(=O)NN1C(=O)c2cc(S(=O)(=O)[O-])cc3c(N)c(S(=O)(=O)[O-])cc(c23)C1=O.[Li+].[Li+] [fluorescence yellow]
Papp of fluorescence yellow (Caco-2 cell model): 0.15 ± 0.027 × 10^−6 cm·s^−1 | transmittance (Caco-2 cell model): 0.04 ± 0.005%
